This is an account of results in paper PMC7115507 (European Journal of Medicinal Chemistry, 2019).

“Also recorded” adds a separate entry of the source. Read-outs that look alike come from different tables or passages of the source.

One data set concerns HSV-1. Particulars: cited from earlier work.
In a further data set the test system is HSV-2. The settings on record: cited from earlier work.
Data set [1] concerns CHIKV. Format: cell-based, Chikungunya virus.
The test system of data set [2] is ZIKV. Particulars: cited from earlier work.
Data set [3] has as its system MERS-CoV. Particulars: cited from earlier work.
Data set [4] relates to CHIKV. The settings on record: cited from earlier work.
In data set [5] the test system is SARS-CoV. Particulars: cited from earlier work.
Another data set addresses SAH hydrolase (Homo sapiens, UniProt P23526). Type of data set: biochemical.
A further data set concerns Vero E6 cells. Put plainly: Cytotoxicity. Particulars: highest dose tested.
Data set [6] concerns ZIKV. Format: cell-based, Zika virus.
In data set [7] the test system is MERS-CoV. Type of data set: cell-based, Middle East respiratory syndrome coronavirus.
The test system of data set [8] is SARS-CoV. Type of data set: cell-based, severe acute respiratory syndrome coronavirus.

SAH hydrolase, sequence (P23526 whole entry): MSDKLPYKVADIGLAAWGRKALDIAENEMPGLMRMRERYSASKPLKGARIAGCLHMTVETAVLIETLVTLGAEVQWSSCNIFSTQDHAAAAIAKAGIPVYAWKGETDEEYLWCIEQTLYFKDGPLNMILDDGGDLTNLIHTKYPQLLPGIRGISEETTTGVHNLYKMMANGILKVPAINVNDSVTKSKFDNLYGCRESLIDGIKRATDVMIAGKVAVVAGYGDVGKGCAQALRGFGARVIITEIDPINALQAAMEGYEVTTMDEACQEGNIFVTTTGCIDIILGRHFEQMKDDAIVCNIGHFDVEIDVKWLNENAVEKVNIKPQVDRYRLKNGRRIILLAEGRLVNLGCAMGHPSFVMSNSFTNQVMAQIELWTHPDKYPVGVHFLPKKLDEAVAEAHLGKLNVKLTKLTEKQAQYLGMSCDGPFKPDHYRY

In the case of `Nc1ncnc2c1ncn2C1CC(CCO)C(O)C1O` (single isomer, unassigned; (-)) [(−)-homoaristeromycin], the “activity against HSV-1 (in words)” value with HSV-1 is “inactive”. Further, in the data set on HSV-2, the “activity against HSV-2 (in words)” value is “inactive”.

For the molecule `Nc1ncnc2c1ncn2[C@H]1[C@H](O)[C@H](O)[C@@H](CO)[C@H]1F` [Compound 2a, 6′-β-fluoro-aristeromycin], in the data set on CHIKV [1], the “antiviral activity against CHIKV (in words)” value is “inactive”.

`Nc1ncnc2c1ncn2[C@H]1[C@H](O)[C@H](O)[C@@H](CO)C1(F)F` [Compound 2b, 6,6′-difluoro-aristeromycin]: the “antiviral activity against ZIKV (in words)” value is on record as “broad-spectrum antiviral activity” with ZIKV [2] and “potent antiviral activities” with ZIKV [2] (listed as 2). For the same molecule, the “antiviral activity against MERS-CoV (in words)” value in the data set on MERS-CoV [3] is “broad-spectrum antiviral activity; also recorded: potent antiviral activities”. The results for the “antiviral activity against CHIKV (in words)” value in the data set on CHIKV [4] and in the data set on CHIKV [4] (listed as 2) were “broad-spectrum antiviral activity” and “potent antiviral activities”, respectively. Besides, the “antiviral activity against SARS-CoV (in words)” value in the data set on SARS-CoV [5] is on record as “broad-spectrum antiviral activity; also recorded: potent antiviral activities”.

Regarding `Nc1ncnc2c1ncn2[C@H]1[C@H](O)[C@H](O)[C@@H](CCO)[C@H]1F` [Compound 3a, (1R,2S,3S,4R,5R)-3-(6-Amino-9H-purin-9-yl)-4-fluoro-5-(2-hydroxyethyl)cyclopentane-1,2-diol], the “selectivity index (SI)” value with CHIKV [1] is reported as “more than 2083”. Moreover, the “potency towards SAH hydrolase relative to 3d” value at SAH hydrolase was 5.6 times. In addition, the “concentration up to which no noticeable cytotoxicity was seen” value in the data set on Vero E6 cells was greater than 250 µM.

As to `OCC[C@@H]1[C@@H](O)[C@@H](O)[C@H](n2cnc3c(O)ncnc32)[C@@H]1F` [Compound 3c, 9-((1S,2R,3R,4R,5S)-2-fluoro-4,5-dihydroxy-3-(2-hydroxyethyl)cyclopentyl)-1,9-dihydro-6H-purin-6-one], at SAH hydrolase, the “inhibition of SAH hydrolase at the highest dose tested (in words)” value is listed as “no inhibitory activity was observed”.

As to `Nc1ncnc2c1ncn2[C@H]1[C@H](O)[C@H](O)[C@@H](CCO)C1(F)F` [Compound 3d], in the data set on CHIKV [1], the “antiviral activity against CHIKV (in words)” value is given as “did not exhibit antiviral activity”. Moreover, in the data set with ZIKV [6], the “antiviral activity against ZIKV (in words)” value is reported as “did not exhibit antiviral activity”. Moreover, the “antiviral activity against MERS-CoV (in words)” value in the data set on MERS-CoV [7] was “did not exhibit antiviral activity”. In addition, the “antiviral activity against SARS-CoV (in words)” value in the data set on SARS-CoV [8] is given as “did not exhibit antiviral activity”.
